# Article PMC5578999, “Novel quinolone chalcones targeting colchicine-binding pocket kill multidrug-resistant cancer cells by inhibiting tubulin activity and MRP1 function” (Scientific Reports, 2017)
# Columns and labels:
# Assay type in all cases: cell-based
# MRP1 = target: T1, MRP1 (Homo sapiens, UniProt P33527); assay: Calcein-AM retention assay, HEK293-MRP1 cells; conditions: 22 µmol/L, DMSO control 52%
# T1 construct: expressed in transfected cells; host or cells: HEK293-MRP1 (gift of Dr. Susan Cole)
# A549/ATCC = assay: NCI-60 SRB screen
# From the text: (§1) Supplementary Figure l egend
# (§2) 10μ M of CTR-20 was used to examine the drug’s efficac y against the NC I-60 cancer cell li nes including: six leukemia cell lines, nine non- small cell lung cancer cell lines, seven color ect al cancer cell lines, six CNS cancer cell lines, nine melanoma cell lines, seven ovari an can cer cell lines, seven ren al can cer cell lines, two prostate cancer cell lines and six breast cancer cell lines. The scr eenin g was car r ied out b y the US National Cancer Institute (NC I) us i n g a sulforhodamine B (SRB) colorimetric assay. […]
# (§3) out by the NC I using five different doses of CTR -20.
# EKVX = assay: NCI-60 SRB screen
# From the text: as §1, §2, §3
# HL-60(TB) = assay: NCI-60 SRB screen
# From the text: as §1, §2, §3
# KM12 = assay: NCI-60 SRB screen
# From the text: as §1, §2, §3
# M14 = assay: NCI-60 SRB screen
# From the text: as §1, §2, §3
# MCF7 = assay: NCI-60 SRB screen
# From the text: as §1, §2, §3
# NCI-H23 = assay: NCI-60 SRB screen
# From the text: as §1, §2, §3
# NCI-H460 = assay: NCI-60 SRB screen
# From the text: as §1, §2, §3
# OVCAR-4 = assay: NCI-60 SRB screen
# From the text: as §1, §2, §3
# SF-295 = assay: NCI-60 SRB screen
# From the text: as §1, §2, §3
# SNB-19 = assay: NCI-60 SRB screen
# From the text: as §1, §2, §3
# [1] = Homo sapiens, read-out: LC50 (the source's name)
# T1 sequence (P33527 whole entry): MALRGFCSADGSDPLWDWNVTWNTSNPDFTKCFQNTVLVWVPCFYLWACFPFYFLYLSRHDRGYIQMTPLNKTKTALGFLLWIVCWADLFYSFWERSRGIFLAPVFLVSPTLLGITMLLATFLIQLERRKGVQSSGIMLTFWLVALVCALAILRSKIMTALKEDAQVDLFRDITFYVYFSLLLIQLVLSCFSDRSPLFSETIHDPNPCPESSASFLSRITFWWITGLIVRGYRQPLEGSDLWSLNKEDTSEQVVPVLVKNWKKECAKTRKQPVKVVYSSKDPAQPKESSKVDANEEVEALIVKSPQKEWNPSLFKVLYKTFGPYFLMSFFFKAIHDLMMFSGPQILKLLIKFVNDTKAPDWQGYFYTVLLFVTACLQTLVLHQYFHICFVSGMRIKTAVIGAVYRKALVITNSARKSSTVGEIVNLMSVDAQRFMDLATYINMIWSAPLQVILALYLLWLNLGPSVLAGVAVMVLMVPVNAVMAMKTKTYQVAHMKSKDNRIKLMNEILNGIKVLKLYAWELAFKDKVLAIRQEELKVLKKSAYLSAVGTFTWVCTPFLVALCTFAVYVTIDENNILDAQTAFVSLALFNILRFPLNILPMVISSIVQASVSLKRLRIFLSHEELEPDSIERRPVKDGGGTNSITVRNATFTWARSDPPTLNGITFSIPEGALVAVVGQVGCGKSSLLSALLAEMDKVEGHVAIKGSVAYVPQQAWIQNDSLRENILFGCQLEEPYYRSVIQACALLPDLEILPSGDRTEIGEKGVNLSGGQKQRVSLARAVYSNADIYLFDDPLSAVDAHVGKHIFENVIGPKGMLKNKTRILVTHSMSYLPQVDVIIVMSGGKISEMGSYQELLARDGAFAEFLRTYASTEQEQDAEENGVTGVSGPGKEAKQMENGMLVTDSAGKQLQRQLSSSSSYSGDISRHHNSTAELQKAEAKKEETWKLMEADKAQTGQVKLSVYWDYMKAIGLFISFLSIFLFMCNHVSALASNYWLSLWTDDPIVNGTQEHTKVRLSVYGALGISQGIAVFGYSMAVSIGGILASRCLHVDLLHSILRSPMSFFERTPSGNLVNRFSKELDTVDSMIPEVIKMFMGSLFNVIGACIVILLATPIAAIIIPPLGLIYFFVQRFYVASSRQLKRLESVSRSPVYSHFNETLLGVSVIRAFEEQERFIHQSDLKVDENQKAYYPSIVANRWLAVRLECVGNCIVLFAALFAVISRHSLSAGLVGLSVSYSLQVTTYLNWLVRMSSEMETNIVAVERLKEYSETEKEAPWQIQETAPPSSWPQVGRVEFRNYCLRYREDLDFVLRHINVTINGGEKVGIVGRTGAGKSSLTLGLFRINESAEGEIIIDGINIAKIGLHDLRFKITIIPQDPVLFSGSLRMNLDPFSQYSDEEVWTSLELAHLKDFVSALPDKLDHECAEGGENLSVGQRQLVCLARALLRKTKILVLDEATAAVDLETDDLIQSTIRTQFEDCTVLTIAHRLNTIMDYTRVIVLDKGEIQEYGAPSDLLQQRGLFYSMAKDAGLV
smiles,measurement,setting,value
"COc1ccc2[nH]c(=O)c(/C=C/C(=O)c3ccccc3OC)cc2c1 [CTR-20, (E)-6-Methoxy-3-(3-(2-methoxyphenyl)-3-oxoprop-1-enyl) quinolin-2(1H)-one]",calcein-AM retained in the cells,MRP1,72%
same,Log10GI50,A549/ATCC,-5.68 Molar
same,Log10LC50,A549/ATCC,-4.42 Molar
same,Log10TGI,A549/ATCC,-4.98 Molar
same,TGI,A549/ATCC,1.04E-5 Molar
same,Growth Percent,A549/ATCC; 1.00E-5 Molar,10.42%
same,GI50,A549/ATCC; Homo sapiens,2.09 µM
same,CC50,A549/ATCC; [1],37.9 µM
same,Percent Growth,A549/ATCC; Log10 Concentration -4.0,-88%
same,Percent Growth,A549/ATCC; Log10 Concentration -5.0,2%
same,Percent Growth,A549/ATCC; Log10 Concentration -6.0,73%
same,Percent Growth,A549/ATCC; Log10 Concentration -7.0,114%
same,Percent Growth,A549/ATCC; Log10 Concentration -8.0,106%
same,Log10GI50,EKVX,-5.69 Molar
same,Log10LC50,EKVX,-4.25 Molar
same,Log10TGI,EKVX,-4.98 Molar
same,TGI,EKVX,1.05E-5 Molar
same,Growth Percent,EKVX; 1.00E-5 Molar,37.76%
same,GI50,EKVX; Homo sapiens,2.05 µM
same,CC50,EKVX; [1],55.8 µM
same,Percent Growth,EKVX; Log10 Concentration -4.0,-67%
same,Percent Growth,EKVX; Log10 Concentration -5.0,1%
same,Percent Growth,EKVX; Log10 Concentration -6.0,72%
same,Percent Growth,EKVX; Log10 Concentration -7.0,91%
same,Percent Growth,EKVX; Log10 Concentration -8.0,86%
same,Log10GI50,HL-60(TB),-6.69 Molar
same,Log10LC50,HL-60(TB),> -4.00 Molar
same,Log10TGI,HL-60(TB),-6.05 Molar
same,TGI,HL-60(TB),8.83E-7 Molar
same,Growth Percent,HL-60(TB); 1.00E-5 Molar,-2.46%
same,GI50,HL-60(TB); Homo sapiens,0.206 µM
same,CC50,HL-60(TB); [1],> 100 µM
same,Percent Growth,HL-60(TB); Log10 Concentration -4.0,-37%
same,Percent Growth,HL-60(TB); Log10 Concentration -5.0,-12%
same,Percent Growth,HL-60(TB); Log10 Concentration -6.0,-4%
same,Percent Growth,HL-60(TB); Log10 Concentration -7.0,75%
same,Percent Growth,HL-60(TB); Log10 Concentration -8.0,97%
same,Log10GI50,KM12,-6.49 Molar
same,Log10LC50,KM12,-5.23 Molar
same,Log10TGI,KM12,-5.80 Molar
same,TGI,KM12,1.58E-6 Molar
same,Growth Percent,KM12; 1.00E-5 Molar,4.37%
same,GI50,KM12; Homo sapiens,0.321 µM
same,CC50,KM12; [1],5.89 µM
same,Percent Growth,KM12; Log10 Concentration -4.0,-86%
same,Percent Growth,KM12; Log10 Concentration -5.0,-70%
same,Percent Growth,KM12; Log10 Concentration -6.0,17%
same,Percent Growth,KM12; Log10 Concentration -7.0,84%
same,Percent Growth,KM12; Log10 Concentration -8.0,99%
same,Log10GI50,M14,-6.56 Molar
same,Log10LC50,M14,-4.62 Molar
same,Log10TGI,M14,-5.85 Molar
same,TGI,M14,1.41E-6 Molar
same,Growth Percent,M14; 1.00E-5 Molar,13.82%
same,GI50,M14; Homo sapiens,0.278 µM
same,CC50,M14; [1],24 µM
same,Percent Growth,M14; Log10 Concentration -4.0,-93%
same,Percent Growth,M14; Log10 Concentration -5.0,-23%
same,Percent Growth,M14; Log10 Concentration -6.0,4%
same,Percent Growth,M14; Log10 Concentration -7.0,87%
same,Percent Growth,M14; Log10 Concentration -8.0,92%
same,Log10GI50,MCF7,-6.51 Molar
same,Log10LC50,MCF7,> -4.00 Molar
same,Log10TGI,MCF7,-5.13 Molar
same,TGI,MCF7,7.48E-6 Molar
same,Growth Percent,MCF7; 1.00E-5 Molar,10.02%
same,GI50,MCF7; Homo sapiens,0.312 µM
same,CC50,MCF7; [1],> 100 µM
same,Percent Growth,MCF7; Log10 Concentration -4.0,-44%
same,Percent Growth,MCF7; Log10 Concentration -5.0,-2%
same,Percent Growth,MCF7; Log10 Concentration -6.0,16%
same,Percent Growth,MCF7; Log10 Concentration -7.0,83%
same,Percent Growth,MCF7; Log10 Concentration -8.0,86%
same,Log10GI50,NCI-H23,-5.88 Molar
same,Log10LC50,NCI-H23,-4.66 Molar
same,Log10TGI,NCI-H23,-5.41 Molar
same,TGI,NCI-H23,3.93E-6 Molar
same,Growth Percent,NCI-H23; 1.00E-5 Molar,21.29%
same,GI50,NCI-H23; Homo sapiens,1.33 µM
same,CC50,NCI-H23; [1],21.6 µM
same,Percent Growth,NCI-H23; Log10 Concentration -4.0,-64%
same,Percent Growth,NCI-H23; Log10 Concentration -5.0,-43%
same,Percent Growth,NCI-H23; Log10 Concentration -6.0,63%
same,Percent Growth,NCI-H23; Log10 Concentration -7.0,87%
same,Percent Growth,NCI-H23; Log10 Concentration -8.0,88%
same,Log10GI50,NCI-H460,-6.42 Molar
same,Log10LC50,NCI-H460,-4.44 Molar
same,Log10TGI,NCI-H460,-5.65 Molar
same,TGI,NCI-H460,2.25E-6 Molar
same,Growth Percent,NCI-H460; 1.00E-5 Molar,1.79%
same,GI50,NCI-H460; Homo sapiens,0.38 µM
same,CC50,NCI-H460; [1],36.7 µM
same,Percent Growth,NCI-H460; Log10 Concentration -4.0,-71%
same,Percent Growth,NCI-H460; Log10 Concentration -5.0,-22%
same,Percent Growth,NCI-H460; Log10 Concentration -6.0,12%
same,Percent Growth,NCI-H460; Log10 Concentration -7.0,102%
same,Percent Growth,NCI-H460; Log10 Concentration -8.0,105%
same,Log10GI50,OVCAR-4,-5.39 Molar
same,Log10LC50,OVCAR-4,-4.11 Molar
same,Log10TGI,OVCAR-4,-4.63 Molar
same,TGI,OVCAR-4,2.32E-5 Molar
same,Growth Percent,OVCAR-4; 1.00E-5 Molar,50.80%
same,GI50,OVCAR-4; Homo sapiens,4.07 µM
same,CC50,OVCAR-4; [1],76.9 µM
same,Percent Growth,OVCAR-4; Log10 Concentration -4.0,-61%
same,Percent Growth,OVCAR-4; Log10 Concentration -5.0,35%
same,Percent Growth,OVCAR-4; Log10 Concentration -6.0,73%
same,Percent Growth,OVCAR-4; Log10 Concentration -7.0,95%
same,Percent Growth,OVCAR-4; Log10 Concentration -8.0,94%
same,Log10GI50,SF-295,-6.28 Molar
same,Log10LC50,SF-295,-4.42 Molar
same,Log10TGI,SF-295,-4.92 Molar
same,TGI,SF-295,1.21E-5 Molar
same,Growth Percent,SF-295; 1.00E-5 Molar,8.29%
same,GI50,SF-295; Homo sapiens,0.529 µM
same,CC50,SF-295; [1],37.6 µM
same,Percent Growth,SF-295; Log10 Concentration -4.0,-93%
same,Percent Growth,SF-295; Log10 Concentration -5.0,8%
same,Percent Growth,SF-295; Log10 Concentration -6.0,33%
same,Percent Growth,SF-295; Log10 Concentration -7.0,93%
same,Percent Growth,SF-295; Log10 Concentration -8.0,89%
same,Log10GI50,SNB-19,-6.44 Molar
same,Log10LC50,SNB-19,-5.05 Molar
same,Log10TGI,SNB-19,-5.75 Molar
same,TGI,SNB-19,1.79E-6 Molar
same,Growth Percent,SNB-19; 1.00E-5 Molar,17.04%
same,GI50,SNB-19; Homo sapiens,0.362 µM
same,CC50,SNB-19; [1],8.88 µM
same,Percent Growth,SNB-19; Log10 Concentration -4.0,-89%
same,Percent Growth,SNB-19; Log10 Concentration -5.0,-54%
same,Percent Growth,SNB-19; Log10 Concentration -6.0,18%
same,Percent Growth,SNB-19; Log10 Concentration -7.0,90%
same,Percent Growth,SNB-19; Log10 Concentration -8.0,98%
